Measurements reported in ChEMBL document CHEMBL2029223, “Identification of a phenylacylsulfonamide series of dual Bcl-2/Bcl-xL antagonists” (Bioorg Med Chem Lett, 2012).
The source made the active and inactive calls. The rule behind the calls is not given here.

Assays:
MV4-11 [1] = assay: Antiproliferative activity against human MV411 cells after 72 hrs by Cell-Titer Glo assay in presence of 10% FBS; format: functional, cell-based; conditions: MV4-11, 72 h
SUD4 [2] = assay: Induction of apoptosis in human SU-DHL4 cells assessed as BAK oligomerization at 0.1 to 10 uM after 24 hrs by Western blot analysis; format: functional, cell-based
[3] = biological target: Apoptosis regulator Bcl-2 (Homo sapiens, UniProt P10415); assay: Inhibition in GST-tagged Bcl2 using [FAM]-IWIAQELRRIGDEFNAYY-NH2 as substrate after 60 mins by fluorescence polarization assay
SUD4 [4] = assay: Induction of apoptosis in human SU-DHL4 cells assessed as cytochrome c release at 0.1 to 10 uM after 24 hrs by Western blot analysis; format: functional, cell-based
[5] = Antiproliferative activity against human SU-DHL4 cells after 72 hrs by Cell-Titer Glo assay in presence of 10% FBS; format: functional, cell-based, SUD4; conditions: SU-DHL-4, 72 h
[6] = Antiproliferative activity against human SU-DHL4 cells after 72 hrs by Cell-Titer Glo assay in presence of 2% FBS; format: functional, cell-based, SUD4; conditions: SU-DHL-4, 72 h
MV4-11 [7] = assay: Antiproliferative activity against human MV411 cells after 72 hrs by Cell-Titer Glo assay in presence of 2% FBS; format: functional, cell-based; conditions: MV4-11, 72 h
Bcl-2-like protein 1 = Bcl-2-like protein 1 (Homo sapiens, UniProt Q07817); assay: Inhibition of Bcl-XL using fluoresceinated 18-mer Bim as substrate after 60 mins by FRET analysis
SUD4 [8] = assay: Induction of apoptosis in human SU-DHL4 cells assessed as cytochrome c release at 10 uM after 24 hrs by Western blot analysis; format: functional, cell-based
SUD4 [9] = assay: Induction of apoptosis in human SU-DHL4 cells assessed as BAK oligomerization at 10 uM after 24 hrs by Western blot analysis; format: functional, cell-based

Sequence of Bcl-2-like protein 1 (Q07817 whole entry): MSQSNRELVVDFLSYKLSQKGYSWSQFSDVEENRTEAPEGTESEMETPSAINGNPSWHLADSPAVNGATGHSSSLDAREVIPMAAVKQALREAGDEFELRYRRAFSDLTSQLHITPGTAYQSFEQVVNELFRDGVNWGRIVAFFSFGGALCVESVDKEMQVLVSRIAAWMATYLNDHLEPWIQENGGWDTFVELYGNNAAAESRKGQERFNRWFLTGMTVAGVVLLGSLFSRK
Sequence of Apoptosis regulator Bcl-2 (P10415 whole entry): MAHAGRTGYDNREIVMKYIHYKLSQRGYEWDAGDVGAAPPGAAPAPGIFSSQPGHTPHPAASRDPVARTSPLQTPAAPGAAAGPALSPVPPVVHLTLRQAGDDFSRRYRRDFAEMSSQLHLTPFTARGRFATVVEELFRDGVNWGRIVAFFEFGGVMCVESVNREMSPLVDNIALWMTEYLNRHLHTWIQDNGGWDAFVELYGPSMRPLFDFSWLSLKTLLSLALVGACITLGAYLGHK

SMILES	IC50 (MV4-11 [1]) [nM]	IC50 [3] [nM]	IC50 (MV4-11 [7]) [nM]	IC50 (Bcl-2-like protein 1) [nM]	IC50 [5] [nM]	IC50 [6] [nM]	also measured
CCCCN(CCCC)C(=O)c1nn(-c2ccc(C(=O)NS(=O)(=O)c3ccc4ccccc4c3)cc2C(=O)N2Cc3ccccc3C[C@H]2CN)c(C)c1Cl	> 10000	9	8500	–	> 10000	> 10000	Activity (SUD4 [2]): Active; Activity (SUD4 [4]): Active
CCCCN(CCCC)C(=O)c1nn(-c2ccc(NS(=O)(=O)c3cc(Cl)cc(Cl)c3O)cc2C(=O)N2CCc3ccccc3C2)c(C)c1Cl	–	910	–	4300	–	–	–
O=C(c1ccc(CN(Cc2ccc(F)cc2)S(=O)(=O)c2cc(Cl)cc(Cl)c2O)cc1)N(Cc1ccc(F)cc1)Cc1cc(Cl)cc(Cl)c1	–	35	–	> 30000	–	–	–
CC1(C)CCC(c2ccc(Cl)cc2)=C(CN2CCN(c3ccc(C(=O)NS(=O)(=O)c4ccc(N[C@H](CCN5CCOCC5)CSc5ccccc5)c(S(=O)(=O)C(F)(F)F)c4)cc3)CC2)C1	–	–	–	–	–	–	Activity (SUD4 [2]): Active; Activity (SUD4 [4]): Active
CCCCN(CCCC)C(=O)c1nn(-c2ccc(C(=O)NS(=O)(=O)c3ccc4ccccc4c3)cc2C(=O)N2CCc3ccccc3C2C)c(C)c1Cl (stereo not given)	–	710	–	590	–	–	–
CCCCN(CCCC)C(=O)c1nn(-c2ccc(C(=O)NS(=O)(=O)c3ccc4ccccc4c3)cc2C(=O)N2Cc3ccccc3C[C@H]2CO)c(C)c1Cl	> 10000	35	> 10000	–	> 10000	> 10000	Activity (SUD4 [2]): Active; Activity (SUD4 [4]): Active
CCCCN(CCCC)C(=O)c1nn(-c2ccc(C(=O)NS(=O)(=O)c3ccc4c(c3)CCN4C(=O)c3ccc(Cl)c(Cl)c3)cc2C(=O)N2CCc3ccccc3C2)c(C)c1Cl	–	280	–	550	–	–	–
CCCCN(CCCC)C(=O)c1nn(-c2ccc(C(=O)NS(=O)(=O)c3ccc4ccccc4c3)cc2C(=O)N2COc3ccccc3C2)c(C)c1Cl	–	–	–	62	–	–	–
CCCCN(CCCC)C(=O)c1nn(-c2ccc(C(=O)NS(=O)(=O)c3ccc4ccc(OCCN5CCOCC5)cc4c3)cc2C(=O)N2CCc3ccccc3C2)c(C)c1Cl	–	400	–	54	–	–	–
CCCCN(CCCC)C(=O)c1nn(-c2ccc(C(=O)NS(=O)(=O)c3ccc4cccc(S(=O)(=O)CC)c4c3)cc2C(=O)N2CCc3ccccc3C2)c(C)c1Cl	–	180	–	150	–	–	–

Further compounds by falling IC50 (Bcl-2-like protein 1), results first:

IC50 (MV4-11 [1]) [nM]	IC50 [3] [nM]	IC50 (MV4-11 [7]) [nM]	IC50 (Bcl-2-like protein 1) [nM]	SMILES	IC50 [5] [nM]	IC50 [6] [nM]	also measured
–	–	–	47	CCCCN(CCCC)C(=O)c1nn(-c2ccc(C(=O)NS(=O)(=O)c3ccc4ccc(I)cc4c3)cc2C(=O)N2CCc3ccccc3C2)c(C)c1Cl	–	–	–
–	37	–	47	CCCCN(CCCC)C(=O)c1nn(-c2ccc(C(=O)NS(=O)(=O)c3ccc4ccccc4c3)cc2C(=O)N2Cc3ccccc3C[C@H]2COCCN(C)C)c(C)c1Cl	–	–	–
> 10000	16	> 10000	44	CCCCN(CCCC)C(=O)c1nn(-c2ccc(C(=O)NS(=O)(=O)c3ccc4c(c3)CCN4Cc3ccc(Cl)c(Cl)c3)cc2C(=O)N2CCc3ccccc3C2)c(C)c1Cl	> 10000	> 10000	Activity (SUD4 [8]): Active; Activity (SUD4 [9]): Active
–	–	–	41	CCCCN(CCCC)C(=O)c1nn(-c2ccc(C(=O)NS(=O)(=O)c3ccc4cccc(OCCN5CCOCC5)c4c3)cc2C(=O)N2CCc3ccccc3C2)c(C)c1Cl	–	–	–
> 10000	22	2800	29	CCCCN(CCCC)C(=O)c1nn(-c2ccc(C(=O)NS(=O)(=O)c3ccc4ccccc4c3)cc2C(=O)N2Cc3ccccc3C[C@H]2COCCCOC)c(C)c1Cl	> 10000	5400	–
–	26	–	26	CCCCN(CCCC)C(=O)c1nn(-c2ccc(C(=O)NS(=O)(=O)c3ccc4ccccc4c3)cc2C(=O)N2CNc3ccccc3C2)c(C)c1Cl	–	–	–
–	32	–	24	CCCCN(CCCC)C(=O)c1nn(-c2ccc(C(=O)NS(=O)(=O)c3ccc4ccccc4c3)cc2C(=O)N2CCc3ccccc3C2)c(C)c1Cl	–	–	–
–	32	–	23	CCCCN(CCCC)C(=O)c1nn(-c2ccc(C(=O)NS(=O)(=O)c3ccc4c(c3)CCN4)cc2C(=O)N2CCc3ccccc3C2)c(C)c1Cl	–	–	–
> 10000	140	4800	22	CCCCN(CCCC)C(=O)c1nn(-c2ccc(C(=O)NS(=O)(=O)c3ccc4ccccc4c3)cc2C(=O)N2Cc3ccccc3C[C@H]2CN2CCN(C)CC2)c(C)c1Cl	> 10000	9700	–
> 10000	47	1500	19	CCCCN(CCCC)C(=O)c1nn(-c2ccc(C(=O)NS(=O)(=O)c3ccc4ccccc4c3)cc2C(=O)N2Cc3ccccc3C[C@H]2CN2CCCC2)c(C)c1Cl	> 10000	1800	–
–	78	–	17	CCCCN(CCCC)C(=O)c1nn(-c2ccc(C(=O)NS(=O)(=O)c3ccc4c(c3)CCN4CC)cc2C(=O)N2CCc3ccccc3C2)c(C)c1Cl	–	–	–
–	15	–	17	CCCCN(CCCC)C(=O)c1nn(-c2ccc(C(=O)NS(=O)(=O)c3ccc4cccc(OCc5ccc(C(=O)O)cc5)c4c3)cc2C(=O)N2CCc3ccccc3C2)c(C)c1Cl	–	–	–
> 10000	14	3000	16	CCCCN(CCCC)C(=O)c1nn(-c2ccc(C(=O)NS(=O)(=O)c3ccc4ccccc4c3)cc2C(=O)N2Cc3ccccc3C[C@H]2CN2CCOCC2)c(C)c1Cl	> 10000	6300	–
